Like-named read-outs stand apart in the source and are kept apart here.
Tests used:
HeLa cells = experiment: Anti-proliferative activity test in HeLa cell line (MTT); type: cell-based; settings: Homo sapiens, 48 h, grown for 2 days, mean of 2
HeLa CCL2 tumor = experiment: Anticancer effect test in human cervical cancer cell (HeLa CCL2) transplantation model; type: in vivo, BALB/C female nude mouse; settings: 25 mg/kg intraperitoneally, p<0.001; for tumor growth inhibition: 0-28 days, Day 28, tumor size; for reduction in tumor weight compared with solvent control: excised tumor
Description: After thawing the human […] cancer cell line HeLa CCL2 that was stored frozen in liquid nitrogen, cell culture was performed. The cells were cultured for an appropriate period in a CO2 incubator (Forma, USA) at a temperature of 37° C. and a CO2 concentration of 5%.
On the last day of culture, all cancer cells were collected and counted, and the cell concentration was adjusted to 1×10^7 cells/mL using serum free media. The cell culture solution as adjusted above was injected subcutaneously into the axillary region between the shoulder blade and the chest wall in an amount of 0.3 mL (3×10^6 cells/mouse) per BALB/C female nude mouse (5 weeks old, Nara Biotech).
Immediately prior to administration, the compounds were dissolved in a mixture of DMAC (dimethylacetamide) 20%+Tween80 5%+20% HPbCD (2-hydroxypropyl-β-cyclodextrin) 75% at an appropriate concentration and used. The prepared substances were repeatedly administered intraperitoneally in an amount of 0.2 mL (10 mL/kg) per 20 g of a mouse according to the following administration schedule. • carrier, the compound of Example 4, the compound of Example 8, and the compound of Example 15 (25 mg/kg), 0-28 days 4.3. Confirmation of Change in Tumor Size
After cancer cell transplantation, the tumor size of each animal subject was measured a total of 11 times in 3 directions using a vernier caliper from when the mean tumor size reached 57.0 mm^3 until Day 28, and calculated by the formula of length×width×height/2.
In order to test the degree of toxicity upon repeated intraperitoneal administration of the Example compound to HeLa CCL2 cancer cell transplantation nude mice, general symptoms and body weight changes of the animal subjects were observed during the administration period.
On Day 28 after drug administration, blood was collected from the mouse ophthalmic veins in 2 hours post the last administration, and the mice were killed using CO2 gas. Images of the mice were taken, and the tumor was separated and weighed on an electronic scale. After taking the images, each tumor was divided in half and fixed in liquid nitrogen and formalin, respectively. On […] after drug administration, the HeLa CCL2 tumor was excised and weighed.

Stability test in plasma [1] = type: in vitro ADME; design: Residue % (180 minutes elapsed), Mean: dose or concentration left out as unconfirmed; settings: 37° C.
Stability test in plasma [2] = type: in vitro ADME; settings: Rat plasma, 37° C.; for Residue % (180 minutes elapsed), Mean: 5 mM
[3] = Metabolic stability test in liver microsomes; type: in vitro ADME; settings: 0.5 mg protein/mL, 37° C.
Description: (§1) The test compounds at a concentration of […] were administered in the presence or absence of NADPH (1 mM) to liver […] (0.5 mg protein/mL) of humans, rats and mice, and metabolic stability was tested at 37° C. for 30 minutes. In addition, buspirone was used as a positive control. Results thereof are shown in Table below and FIGS. 4A to 4E.

[4] = Stability in buffer (line of the metabolic stability test); type: in vitro ADME
Description: as §1

[5] = Solubility test in administration solvent; type: physicochemical; settings: 2.0 mg/mL, Solvent A 20%
Description: The test substances were accurately weighed and placed in a glass vial. Then, solvent A was added in an amount corresponding to 20% of the desired final solution volume, and the mixture was completely dissolved by treatment with a vortexer and sonication. Next, solvent B in an amount corresponding to 10% or 20% of the final solution volume was added and mixed well. […] Finally, the mixture was subjected to sonication for 30 seconds. The mixed solution was prepared and used immediately before administration in the experiment. • Solvent A: Dimethylacetamide produced by SigmaAldrich • Solvent B: Cremophor EL produced by SigmaAldrich • Solvent C: 20% HPbCD ((2-Hydroxypropyl)-β-cyclodextrin produced by SigmaAldrich) in deionized water

[6] = Pharmacokinetic (PK) test; type: in vivo, male ICR mice; settings: for F, Mean: Oral 20 mg/kg vs intravenous 5 mg/kg, calculated using AUClast; for CL, Mean / Vd / AUC(0-inf) / AUC(0-t) / clearance / MRT inf / half-life / Cmax / Tmax: mice, n=3; for Vd / AUC(0-inf) / AUC(0-t) / clearance / MRT inf / half-life / Cmax / Tmax: male, ICR, mouse, plasma; for Vd: iv; for AUC(0-inf): read-out: AUCinf, Mean; for AUC(0-t): read-out: AUClast, Mean; for clearance: read-out: CL, Mean (converted); for MRT inf: read-out: MRTinf, Mean; for half-life: read-out: t1/2, Mean (converted)
Description: Pharmacokinetic (PK) parameters of the Example compounds according to the present invention were determined using male ICR mice as follows (n=3).
Pharmacokinetic (PK) parameters were measured by non-compartmental analysis of plasma concentration-time curves using Kinetica™ 4.4.1 (Thermo Fisher Scientific, USA). Results thereof are shown in Table below and FIGS. 5A to 5C. In Table below, “F” parameter was calculated using AUClast, “N/A” indicates the phrase not applicable, and “NC” indicates the phrase not calculated.

[7] = 5 mg/kg, Intravenous administration, 5 mg/kg, read-out: Vss, Mean
[8] = 5 mg/kg, Intravenous administration, 5 mg/kg, read-out: Vz, Mean
[9] = Intravenous administration, 5 mg/kg

Row | SMILES | IC50 (HeLa cells) | tumor growth inhibition (HeLa CCL2 tumor) | reduction in tumor weight compared with solvent control (HeLa CCL2 tumor) | Residue % (180 minutes elapsed), Mean (Stability test in plasma [1]; Human plasma) | half-life at 5 mM (Stability test in plasma [1]; Human plasma) | Residue % (180 minutes elapsed), Mean (Stability test in plasma [1]; Mouse plasma) | half-life at 5 mM (Stability test in plasma [1]; Mouse plasma) | half-life at 5 mM (Stability test in plasma [2]) | Residue % (180 minutes elapsed), Mean (Stability test in plasma [2]) | Residue (%) after culturing for 30 min ([3]; Human, +NADPH) | Residue (%) after culturing for 30 min ([3]; Human, −NADPH) | Residue (%) after culturing for 30 min ([3]; Mouse, +NADPH) | Residue (%) after culturing for 30 min ([3]; Mouse, −NADPH) | Residue (%) after culturing for 30 min ([3]; Rat, +NADPH) | Residue (%) after culturing for 30 min ([3]; Rat, −NADPH) | Residue (%) after culturing for 30 min [4] | F, Mean [6] | CL, Mean ([6]; Oral administration, 20 mg/kg) | Vd [6, 7] | Vd [6, 8] | also measured
1 | CCOCCn1c(Cl)c(/C=N/NC(=O)c2cc3cc(C)ccc3o2)c2cc(OC)ccc21 [Example 8, (E)-N′-[(2-chloro-1-(2-ethoxyethyl)-5-methoxy-1H-indol-3-yl]methylene}-5-methylbenzofuran-2-carbohydrazide] | 82 nM | 38.35% | 40.5% | 26.05% | > 180 min | 74.16% | > 180 min | > 180 min | 49.25% | 24.11 ± 0.46% | 99.18 ± 1.92% | 11.41 ± 2.47% | 89.93 ± 6.72% | 4.55 ± 0.94% | 85.58 ± 3.34% | 98.98 ± 2.07% | 1.0% | 195.92 L/h/kg | 0.5 L/kg | 0.85 L/kg | Solubility evaluation result ([5]; Solvent B 20%, Solvent C 60% (dimethylacetamide/Cremophor EL/20% HPbCD)): Soluble; AUC(0-inf) [6, 9]: 2390 ng·h/mL; AUC(0-t) [6, 9]: 2380 ng·h/mL; clearance [6, 9]: 35 mL/min/kg; MRT inf [6, 9]: 14.4 min; half-life [6, 9]: 16.8 min; Cmax ([6]; Oral administration, 20 mg/kg): 93.9 ng/mL; Tmax ([6]; Oral administration, 20 mg/kg): 34.8 min; AUC(0-inf) ([6]; Oral administration, 20 mg/kg): 103 ng·h/mL; AUC(0-t) ([6]; Oral administration, 20 mg/kg): 96.3 ng·h/mL; MRT inf ([6]; Oral administration, 20 mg/kg): 54 min; half-life ([6]; Oral administration, 20 mg/kg): 24 min
2 | CCOCCn1c(Cl)c(/C=N/NC(=O)c2cc3cc(C)ccc3o2)c2ccccc21 [Example 4, (E)-N′-[(2-chloro-1-(2-ethoxyethyl)-1H-indol-3-yl]methylene}-5-methylbenzofuran-2-carbohydrazide] | 180 nM | 56.71% | 57.1% | 49.41% | > 180 min | 60.44% | > 180 min | > 180 min | 67.11% | 15.76 ± 0.89% | 77.60 ± 1.39% | 5.48 ± 0.04% | 47.95 ± 2.93% | 3.23 ± 0.55% | 69.63 ± 1.94% | 100.93 ± 11.79% | 4.8% | 69.14 L/h/kg | 0.98 L/kg | 1.88 L/kg | Solubility evaluation result ([5]; Solvent B 10%, Solvent C 70% (dimethylacetamide/Cremophor EL/20% HPbCD)): Soluble; AUC(0-inf) [6, 9]: 1500 ng·h/mL; AUC(0-t) [6, 9]: 1480 ng·h/mL; clearance [6, 9]: 55.7 mL/min/kg; MRT inf [6, 9]: 17.4 min; half-life [6, 9]: 23.4 min; Cmax ([6]; Oral administration, 20 mg/kg): 431 ng/mL; Tmax ([6]; Oral administration, 20 mg/kg): 15 min; AUC(0-inf) ([6]; Oral administration, 20 mg/kg): 295 ng·h/mL; AUC(0-t) ([6]; Oral administration, 20 mg/kg): 285 ng·h/mL; MRT inf ([6]; Oral administration, 20 mg/kg): 42 min; half-life ([6]; Oral administration, 20 mg/kg): 24 min
